According to the Deep4Chem optical property database:
Values belong to the compound of their own block, whether it stands above or below them.

Test: photoluminescence quantum yield (fraction); solvent given as SMILES
[1] = in O=P(c1ccccc1)(c1ccccc1)c1ccccc1Oc1ccccc1P(=O)(c1ccccc1)c1ccccc1

Compound: Cc1c(COC(=O)Cc2ccccc2)n2c(OCC(=O)Cc3ccccc3)c(C)c(=O)n2c1=O
- photoluminescence quantum yield (in CCO): 0.836

Compound: C(=C\c1c2ccccc2cc2ccccc12)/c1cnc2ccccc2c1
- photoluminescence quantum yield (in CC1CCCCC1): 0.7
- photoluminescence quantum yield (in CC#N): 0.58

Compound: CN(C)c1ccc(/C=C/c2nc3ccc(N(C)C)cc3oc2=O)cc1
- photoluminescence quantum yield (in C1CCCCC1): 0.57
- photoluminescence quantum yield (in C1COCCO1): 0.59
- photoluminescence quantum yield (in CC#N): 0.21
- photoluminescence quantum yield (in CC(C)=O): 0.36
- photoluminescence quantum yield (in CC(O)CO): 0.024
- photoluminescence quantum yield (in CCCCCCC): 0.56
- photoluminescence quantum yield (in CCO): 0.016
- photoluminescence quantum yield (in CCOC(C)=O): 0.52
- photoluminescence quantum yield (in CN(C)C=O): 0.22
- photoluminescence quantum yield (in CS(C)=O): 0.04
- photoluminescence quantum yield (in Cc1ccccc1): 0.57
- photoluminescence quantum yield (in ClC(Cl)Cl): 0.52
- photoluminescence quantum yield (in ClCCl): 0.55
- photoluminescence quantum yield (in OCC(O)CO): 0.019

Compound: COc1ccc(C2=Cc3ccc4ccccc4[n+]3[B-](F)(F)O2)cc1
- photoluminescence quantum yield (in ClC(Cl)Cl): 0.94

Compound: COc1ccc2oc(=N)c(C#N)cc2c1
- photoluminescence quantum yield (in ClCCl): 0.062

Compound: CCc1c(C)[nH]c(C2=[N+]3C(=Cc4c(C)c(CC)c(C)n4[B-]3(F)F)c3ccccc32)c1C
- photoluminescence quantum yield (in C1CCOC1): 0.09
- photoluminescence quantum yield (in CC#N): 0.03
- photoluminescence quantum yield (in CCCCCC): 0.86
- photoluminescence quantum yield (in CO): 0.04
- photoluminescence quantum yield (in Cc1ccccc1): 0.75
- photoluminescence quantum yield (in ClCCl): 0.73

Compound: CN(C)c1ccc2c(c1)Cc1ccccc1-2
- photoluminescence quantum yield (in C1CCOC1): 0.39
- photoluminescence quantum yield (in C1COCCO1): 0.38
- photoluminescence quantum yield (in CC(=O)N(C)C): 0.4
- photoluminescence quantum yield (in CCCCCC): 0.25
- photoluminescence quantum yield (in CCCCCCO): 0.22
- photoluminescence quantum yield (in CCCCCO): 0.19
- photoluminescence quantum yield (in CCCCO): 0.19
- photoluminescence quantum yield (in CCCO): 0.21
- photoluminescence quantum yield (in CCO): 0.2
- photoluminescence quantum yield (in CCOC(C)=O): 0.4
- photoluminescence quantum yield (in CCOCC): 0.31
- photoluminescence quantum yield (in CO): 0.2
- photoluminescence quantum yield (in CS(C)=O): 0.42
- photoluminescence quantum yield (in O): 0.12
- photoluminescence quantum yield (in OC1CCCCC1): 0.22

Compound: CN(C)c1ccc(C2=Nc3sc4ccccc4[n+]3[B-](F)(F)O2)cc1
- photoluminescence quantum yield (in C1CCOC1): 0.78
- photoluminescence quantum yield (in CC#N): 0.17
- photoluminescence quantum yield (in CC(C)=O): 0.31
- photoluminescence quantum yield (in Cc1ccccc1): 0.84
- photoluminescence quantum yield (in ClCCl): 0.77

Compound: O=c1oc2ccccc2c(O)c1C(CC(O)c1ccc(-c2ccc(Br)cc2)cc1)c1ccccc1 (stereo unspecified)
- photoluminescence quantum yield (in CC#N): 0.06
- photoluminescence quantum yield (in CCO): 0.058
- photoluminescence quantum yield (in CO): 0.034
- photoluminescence quantum yield (in O): 0.017

Compound: COc1ccc(C#Cc2c3ccccc3c(C#Cc3ccc(OC)cc3)c3cc4sc(C)cc4cc23)cc1
- photoluminescence quantum yield (in ClCCl): 0.75

Compound: CC[N+](CC)=c1ccc2c(-c3ccccc3C(=O)O)c3cc4c(-c5ccccc5C(=O)O)c5ccc(=[N+](CC)CC)cc-5oc4cc3oc-2c1
- photoluminescence quantum yield (in ClC(Cl)Cl): 0.17

Compound: CC(C)(C)c1ccc(-c2cc(-c3ccc(-c4cc(-c5ccc(C(C)(C)C)cc5)c(C(=O)N5CCOCC5)s4)s3)sc2C(=O)N2CCOCC2)cc1
- photoluminescence quantum yield (in ClCCl): 0.26

Compound: CC(C)(C)C#Cc1cc2c(C#CC(C)(C)C)c(C#CC(C)(C)C)c3cc(C#CC(C)(C)C)cc4c(C#CC(C)(C)C)c(C#CC(C)(C)C)c(c1)c2c34
- photoluminescence quantum yield (in ClCCl): 0.12

Compound: c1ccc2c(c1)c1ccccc1n2-c1ccc2c(c1)c1ccccc1n2-c1cc2c3ccccc3n3c4ccccc4c(c1)c23
- photoluminescence quantum yield [1]: 0.53

Compound: Cc1cc(-n2c3ccccc3c3cc4c(cc32)C2c3ccccc3C4c3ccccc32)c(C)cc1-c1nc(-c2ccccc2)nc(-c2ccccc2)n1
- photoluminescence quantum yield (in Cc1ccccc1): 0.46
- photoluminescence quantum yield [1]: 0.3

Compound: CCC1=C(C)C2=Cc3c4ccccc4c4n3[B-](c3ccncc3)(Oc3ccccc3-4)[N+]2=C1C (stereo unspecified)
- photoluminescence quantum yield (in CC#N): 0.73
- photoluminescence quantum yield (in CCCCCC): 0.78
- photoluminescence quantum yield (in Cc1ccccc1): 0.7
- photoluminescence quantum yield (in ClCCl): 0.7

Compound: COc1ccc(C2=[N+]3C(=Nc4c5c6ccccc6c6ccc(C(C)(C)C)cc6c5c(-c5ccc(OC)cc5)n4[B-]3(F)F)c3c2c2cc(C(C)(C)C)ccc2c2ccccc32)cc1
- photoluminescence quantum yield (in Cc1ccccc1): 0.32

Compound: c1ccc2c(c1)ccc1ccc3ccc4ccc5ccccc5c4c3c12
- photoluminescence quantum yield (in ClCCl): 0.02

Compound: CCC1=C(C)C2=Cc3c(I)c(I)c(I)n3[B-](F)(F)[N+]2=C1C
- photoluminescence quantum yield (in C1CCCCC1): 0.065
- photoluminescence quantum yield (in CC(C)=O): 0.029
- photoluminescence quantum yield (in CCO): 0.037
- photoluminescence quantum yield (in CCOC(C)=O): 0.037
- photoluminescence quantum yield (in CO): 0.032
- photoluminescence quantum yield (in OCC(F)(F)F): 0.021

Compound: COc1cc(OC)cc(C2=[O+][B-](F)(F)OC(c3cccs3)=C2)c1
- photoluminescence quantum yield (in CC#N): 0.002
- photoluminescence quantum yield (in CC(C)=O): 0.01
- photoluminescence quantum yield (in CCCCCC): 0.16
- photoluminescence quantum yield (in Cc1ccccc1): 0.14
- photoluminescence quantum yield (in ClCCl): 0.04

Compound: CCCN1c2ccccc2Sc2cc(/C=C\c3cc(=O)oc4cc(C)ccc34)ccc21
- photoluminescence quantum yield (in ClC(Cl)Cl): 0.27

Compound: F[B-]1(F)n2c(c3ccccc3c2-c2ccccc2)C(c2ccccc2)=C2c3ccccc3C(c3ccccc3)=[N+]21
- photoluminescence quantum yield (in ClCCl): 0.93

Compound: CCn1c2ccccc2c2cc(/C=C/c3cccc[n+]3CCCS(=O)(=O)[O-])ccc21
- photoluminescence quantum yield (in C1CCOC1): 0.09
- photoluminescence quantum yield (in CC#N): 0.03
- photoluminescence quantum yield (in CC(C)=O): 0.03
- photoluminescence quantum yield (in Cc1ccccc1): 0.06

Compound: CC1=[N+]2C(=Cc3cccn3[B-]2(F)F)C=C1
- photoluminescence quantum yield (in CCCCCC): 0.96
- photoluminescence quantum yield (in CO): 1
- photoluminescence quantum yield (in ClCCl): 0.92

Compound: CCN(CC)c1ccc2cc(C#N)/c(=N\C(C)=O)oc2c1
- photoluminescence quantum yield (in CCO): 0.15
- photoluminescence quantum yield (in ClCCl): 0.8

Compound: Cc1cc(C)c(B(c2ccc(N3c4ccccc4Oc4ccccc43)cc2)c2c(C)cc(C)cc2C)c(C)c1
- photoluminescence quantum yield (in Cc1ccccc1): 0.87

Compound: Cc1nnc(-c2cc(-n3c4ccccc4c4ccccc43)c(-n3c4ccccc4c4ccccc43)cc2-c2nnc(C)o2)o1
- photoluminescence quantum yield (in Cc1ccccc1): 0.287

Compound: CN(CC(O)c1cccc(O)c1)c1ccc([N+](=O)[O-])c(C2CC(c3cccc4ccccc34)=NN2c2ccccc2)c1 (stereo unspecified)
- photoluminescence quantum yield (in C1CCCCC1): 0.16
- photoluminescence quantum yield (in C1CCOC1): 0.27
- photoluminescence quantum yield (in C1COCCO1): 0.5
- photoluminescence quantum yield (in CC#N): 0.25
- photoluminescence quantum yield (in CC(C)O): 0.17
- photoluminescence quantum yield (in CCOC(C)=O): 0.25
- photoluminescence quantum yield (in CCOCC): 0.23
- photoluminescence quantum yield (in CO): 0.19
- photoluminescence quantum yield (in Cc1ccccc1): 0.18
- photoluminescence quantum yield (in ClC(Cl)Cl): 0.22
- photoluminescence quantum yield (in O): 0.16

Compound: c1ccc2c3c(ccc2c1)-c1cc2ccccc2c2cccc-3c12
- photoluminescence quantum yield (in CCCCCCC): 0.1

Compound: CCCCN1C(=O)c2ccc3c4c(Br)cc5c6c(ccc(c7c(Br)cc(c2c37)C1=O)c64)C(=O)N(CCCC)C5=O
- photoluminescence quantum yield (in ClC(Cl)Cl): 0.73

Compound: CCCCCCN1C(=O)c2cccc3c(-c4cc5ccccc5s4)ccc(c23)C1=O
- photoluminescence quantum yield (in ClC(Cl)Cl): 0.28

Compound: BrCCCCCCCCCCCCOc1cc2ccc3cccc4ccc(c1)c2c34
- photoluminescence quantum yield (in Cc1ccccc1): 0.59

Compound: Cc1cccc(C2=CC3=C(c4c(C)cc(C)cc4C)c4cc(-c5cccc(C)c5)c(-c5cccc(C)c5)n4[B-](F)(F)[N+]3=C2c2cccc(C)c2)c1
- photoluminescence quantum yield (in C1CCCCC1): 0.41
- photoluminescence quantum yield (in C1CCOC1): 0.33
- photoluminescence quantum yield (in CC#N): 0.24
- photoluminescence quantum yield (in Cc1ccccc1): 0.44
- photoluminescence quantum yield (in ClCCl): 0.3

More lines, now with the values ahead:

- photoluminescence quantum yield (in CC#N): 0.0006
Compound: C(=C\c1cc[n+](Cc2ccccc2)cc1)/c1cc[n+](Cc2ccccc2)cc1

- photoluminescence quantum yield (in ClCCl): 0.33
Compound: CCCCN(CCCC)c1ccc2c#cc3cc4c#cc5ccc(C(F)(F)F)cc5c#cc#cc5cc(N(CCCC)CCCC)ccc5c#cc4cc3c#cc3ccc(C(F)(F)F)cc3c#cc#cc2c1

- photoluminescence quantum yield (in ClCCl): 0.3
Compound: Cc1cc(C)c(C2=C3C=C(/C=C/C(=O)OC(C)(C)C)C=[N+]3[B-](F)(F)n3cccc32)c(C)c1

- photoluminescence quantum yield (in CC#N): 0.32
- photoluminescence quantum yield (in ClCCl): 0.48
Compound: COC(=O)c1cc(=O)n(C)c2cc(-c3cccc(OC)c3)sc12

- photoluminescence quantum yield (in ClCCl): 0.07
Compound: CC(C)(C)NC(=O)c1ccc(C(=O)NC(C)(C)C)c2c1c1c3ccc(Cl)cc3c3cc(Cl)ccc3c1c1c3ccc(Cl)cc3c3cc(Cl)ccc3c21

- photoluminescence quantum yield (in CC#N): 0.13
Compound: CCN(CC)c1ccc(/C=N/CC/N=C/c2ccc(N(CC)CC)cc2O)c(O)c1

- photoluminescence quantum yield (in C1COCCO1): 0.45
- photoluminescence quantum yield (in CC#N): 0.37
- photoluminescence quantum yield (in CCCCOCCCC): 0.39
- photoluminescence quantum yield (in CCOC(C)=O): 0.26
Compound: COc1nc(Nc2ccc3cc4ccccc4cc3c2)nc(OC)n1

- photoluminescence quantum yield (in ClCCl): 0.16
Compound: Cn1cc(-c2nc3ccccc3nc2C#Cc2ccccc2)c2ccccc21

- photoluminescence quantum yield (in ClCCl): 0.76
Compound: ClP1(Cl)=N[P@](Cl)(Oc2ccc3ccc4cccc5ccc2c3c45)=N[P@@](Cl)(Oc2ccc3ccc4cccc5ccc2c3c45)=N1

- photoluminescence quantum yield (in CC(C)(C)O): 0.11
- photoluminescence quantum yield (in CC(C)CO): 0.1
- photoluminescence quantum yield (in CC(C)O): 0.1
- photoluminescence quantum yield (in CCCCO): 0.17
- photoluminescence quantum yield (in CCCO): 0.19
- photoluminescence quantum yield (in CCO): 0.18
- photoluminescence quantum yield (in CN(C)C=O): 0.03
- photoluminescence quantum yield (in CNC=O): 0.08
- photoluminescence quantum yield (in CO): 0.22
- photoluminescence quantum yield (in NC=O): 0.3
- photoluminescence quantum yield (in O): 0.54
Compound: COCCOc1cc(C=O)c(OCCOC)cc1C=O

- photoluminescence quantum yield (in ClCCl): 0.0031
Compound: c1ccc2c(c1)c1ccc3cccc4c3c1c2c1c2cccc3ccc5c6ccccc6c(c5c32)c41

- photoluminescence quantum yield (in C1CCCCC1): 0.02
Compound: C(#Cc1cccc2cc(-c3ccccc3)c3cc(-c4cc[b-]5c(c4)c(-c4ccccc4)cc4cccc(C#Cc6ccccc6)[n+]54)cc[b-]3[n+]12)c1ccccc1

- photoluminescence quantum yield (in ClCCl): 0.02
Compound: CC(C)[Si](C#Cc1ccc(C#C[Si](C(C)C)(C(C)C)C(C)C)c2nc3ccccc3nc12)(C(C)C)C(C)C

- photoluminescence quantum yield (in CC#N): 0.58
- photoluminescence quantum yield (in CCO): 0.66
- photoluminescence quantum yield (in CN(C)C=O): 0.54
- photoluminescence quantum yield (in O): 0.36
Compound: CCN(CC)c1ccc2c(-c3ccc(S(=O)(=O)O)cc3S(=O)(=O)[O-])c3ccc(=[N+](CC)CC)cc-3oc2c1

- photoluminescence quantum yield (in ClCCl): 0.1
Compound: O=c1oc2ccccc2c2c1c(=O)oc1cc(O)cc(O)c12

- photoluminescence quantum yield (in CO): 0.0103
Compound: C(C1=[NH+]c2cccc3cccc1c23)=c1[nH]c2cccc3cccc1c32

- photoluminescence quantum yield (in ClC(Cl)Cl): 0.32
Compound: CCn1c2ccccc2sc2c(C#N)c3[nH]c4ccccc4sc3c(C#N)c21

- photoluminescence quantum yield (in CC#N): 0.027
Compound: Cc1cc2nc3c(=O)[nH]c(=O)n(C)c3nc2cc1C
